# Marks after values point to notes of the source that are not given here.
# Test system: Mtb K204
# Type: cell-based, Mycobacterium tuberculosis
# Conditions: KAN alone, no inhibitor
smiles,measurement,value
"NC[C@H]1O[C@H](O[C@H]2[C@H](O)[C@@H](O[C@H]3O[C@H](CO)[C@@H](O)[C@H](N)[C@H]3O)[C@H](N)C[C@@H]2N)[C@H](O)[C@@H](O)[C@@H]1O [KAN, kanamycin]",MICKAN in K204,">10, >10^d μg/mL"

# Reference: article PMC7385556 (ACS chemical biology, 2020)
